The source made the active and inactive calls. No cut-off for these calls is given here.
Key:
[1] = Induction of apoptosis in mouse B16F10 cells assessed as live cells at cytotoxic IC50 after 72 hrs by Annexin V-FITC/propidium iodide staining based flow cytometry (reference value: 97.55 +/- 0.5%); format: functional, B16-F10
HT-29 [2] = experiment: Induction of apoptosis in human HT-29 cells assessed as early apoptotic cells at cytotoxic IC50 after 72 hrs by Annexin V-FITC/propidium iodide staining based flow cytometry (reference value: 1.65 +/- 0.07%); format: functional
HepG2 [3] = experiment: Induction of apoptosis in human HepG2 cells assessed as live cells at cytotoxic IC50 after 72 hrs by Annexin V-FITC/propidium iodide staining based flow cytometry (reference value: 99.55 +/- 0.07%); format: functional
HepG2 [4] = experiment: Induction of apoptosis in human HepG2 cells assessed as late apoptotic cells at cytotoxic IC50 after 72 hrs by Annexin V-FITC/propidium iodide staining based flow cytometry relative to control; format: functional
[5] = Cell cycle arrest in mouse B16F10 cells assessed as accumulation at S phase at cytotoxic IC50 after 72 hrs by propidium iodide staining based flow cytometry (reference value: 48.31 +/- 0.74%); format: functional, B16-F10
[6] = Cell cycle arrest in mouse B16F10 cells assessed as accumulation at G2/M phase at cytotoxic IC50 after 72 hrs by propidium iodide staining based flow cytometry (reference value: 1.01 +/- 0.13%); format: functional, B16-F10
HT-29 [7] = experiment: Cell cycle arrest in human HT-29 cells assessed as accumulation at G0/G1 phase at cytotoxic IC50 after 72 hrs by propidium iodide staining based flow cytometry (reference value: 55.18 +/- 0.22%); format: functional
HepG2 [8] = experiment: Cell cycle arrest in human HepG2 cells assessed as accumulation at S phase at cytotoxic IC50 after 72 hrs by propidium iodide staining based flow cytometry (reference value: 54.71 +/- 2.37%); format: functional
HepG2 [9] = experiment: Cell cycle arrest in human HepG2 cells assessed as accumulation at G2/M phase at cytotoxic IC50 after 72 hrs by propidium iodide staining based flow cytometry (reference value: 8.47 +/- 2.55%); format: functional
[10] = Disruption of mitochondrial membrane potential in mouse B16F10 cells assessed as rhodamine123 positive cells at cytotoxic IC50 after 72 hrs by propidium iodide staining based fluorescence spectroscopic analysis (reference value: 95.6 +/- 0.57%); format: functional, B16-F10
HT-29 [11] = experiment: Disruption of mitochondrial membrane potential in human HT-29 cells assessed as rhodamine123 positive cells at cytotoxic IC50 after 72 hrs by propidium iodide staining based fluorescence spectroscopic analysis (reference value: 94.25 +/- 0.35%); format: functional
HepG2 [12] = experiment: Disruption of mitochondrial membrane potential in human HepG2 cells assessed as rhodamine123 positive cells at cytotoxic IC50 after 72 hrs by propidium iodide staining based fluorescence spectroscopic analysis (reference value: 88.3 +/- 8.87%); format: functional
HepG2 [13] = experiment: Induction of apoptosis in human HepG2 cells assessed as nucleus containing nicked DNA at cytotoxic IC50 after 72 hrs by Hoechst staining based fluorescence microscopic analysis; format: functional, cell-based
HepG2 [14] = experiment: Induction of apoptosis in human HepG2 cells assessed as spherical cell shape at cytotoxic IC50 after 72 hrs by Hoechst staining based fluorescence microscopic analysis; format: functional
HepG2 [15] = experiment: Induction of apoptosis in human HepG2 cells assessed as bubble shaped region in cell surface at cytotoxic IC50 after 72 hrs by Hoechst staining based fluorescence microscopic analysis; format: functional
HepG2 [16] = experiment: Induction of apoptosis in human HepG2 cells assessed as loss of nuclear architecture at cytotoxic IC50 after 72 hrs by Hoechst staining based fluorescence microscopic analysis; format: functional, cell-based
HepG2 [17] = experiment: Induction of apoptosis in human HepG2 cells assessed as disruption of cell membrane integrity at cytotoxic IC50 after 72 hrs by Hoechst staining based fluorescence microscopic analysis; format: functional

## COCCOCCOCC(=O)O[C@@H]1C[C@]2(C)[C@H]3CC=C4[C@@H]5CC(C)(C)CC[C@]5(C(=O)O)CC[C@@]4(C)[C@]3(C)CC[C@H]2C(C)(C)[C@H]1OC(=O)COCCOCCOC
[1]
  Activity: 11.1%
HT-29 [2]
  Activity: 40.1%
HepG2 [3]
  Activity: 55.7%
HepG2 [4]
  Activity: 29.1%
[5]
  Activity: 12.07%
[6]
  Activity: 0%
HT-29 [7]
  Activity: 94.28%
HepG2 [8]
  Activity: 26.7%
HepG2 [9]
  Activity: 15.45%
[10]
  Activity: 75.05%
HT-29 [11]
  Activity: 94.3%
HepG2 [12]
  Activity: 56.7%
HepG2 [13]
  Activity: Active
HepG2 [14]
  Activity: Active
HepG2 [15]
  Activity: Active
HepG2 [16]
  Activity: Active
HepG2 [17]
  Activity: Active

## CC1(C)CC[C@]2(C(=O)NCCCOCCOCCOCCCN)CC[C@]3(C)C(=CC[C@@H]4[C@@]5(C)C[C@@H](O)[C@H](O)C(C)(C)[C@@H]5CC[C@]43C)[C@@H]2C1
[1]
  Activity: 0.9%
HT-29 [2]
  Activity: 31.25%
HepG2 [3]
  Activity: 19.75%
HepG2 [4]
  Activity: 33.05%
[5]
  Activity: 22.44%
[6]
  Activity: 10.91%
HT-29 [7]
  Activity: 79.78%
HepG2 [8]
  Activity: 50.45%
HepG2 [9]
  Activity: 9.34%
[10]
  Activity: 48.05%
HT-29 [11]
  Activity: 63.1%
HepG2 [12]
  Activity: 59.2%
HepG2 [13]
  Activity: Active
HepG2 [14]
  Activity: Active
HepG2 [15]
  Activity: Active
HepG2 [16]
  Activity: Active
HepG2 [17]
  Activity: Active
